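Protocol summary: plate cells (96-well), add compound at 5 concentrations, incubate 48 h, interpolate endpoints linearly. Abbreviation: GI50, concentration required for 50% inhibition of growth. TGI: concentration producing complete growth inhibition.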 Where a SMILES comes first, the peptide text is derived from it. [ ]: non-standard residue; d: D form.
Legend:
Experiment in all cases: NCI-60 cell line screen, 48 h
UACC-257 melanoma = system: UACC-257 melanoma
A498 renal = system: A498 renal
EKVX NSCLC = system: EKVX NSCLC
SW-620 colon = system: SW-620 colon
SNB-19 CNS = system: SNB-19 CNS
M14 melanoma = system: M14 melanoma
SF-268 CNS = system: SF-268 CNS
SK-MEL-5 melanoma = system: SK-MEL-5 melanoma
LOX IMVI melanoma = system: LOX IMVI melanoma
NCI/ADR-RES ovarian = system: NCI/ADR-RES ovarian
HT29 colon = system: HT29 colon
MOLT-4 leukemia = system: MOLT-4 leukemia
RXF 393 renal = system: RXF 393 renal
SF-539 CNS = system: SF-539 CNS
BT-549 breast = system: BT-549 breast
HCC-2998 colon = system: HCC-2998 colon
SF-295 CNS = system: SF-295 CNS
HOP-92 NSCLC = system: HOP-92 NSCLC
HCT-116 colon = system: HCT-116 colon
UACC-62 melanoma = system: UACC-62 melanoma
A549 NSCLC = system: A549 NSCLC
KM12 colon = system: KM12 colon
NCI-H522 lung = system: NCI-H522 lung
NCI-H226 lung = system: NCI-H226 lung
CCRF-CEM leukemia = system: CCRF-CEM leukemia
OVCAR-3 ovarian = system: OVCAR-3 ovarian
COLO 205 colon = system: COLO 205 colon
SN12C renal = system: SN12C renal
RPMI-8226 leukemia = system: RPMI-8226 leukemia
SR leukemia = system: SR leukemia
SK-MEL-2 melanoma = system: SK-MEL-2 melanoma
K-562 leukemia = system: K-562 leukemia
NCI-H460 lung = system: NCI-H460 lung
IGROV1 ovarian = system: IGROV1 ovarian
786-0 renal = system: 786-0 renal
DU-145 prostate = system: DU-145 prostate
U251 CNS = system: U251 CNS
T-47D breast = system: T-47D breast
MCF7 breast = system: MCF7 breast
OVCAR-5 ovarian = system: OVCAR-5 ovarian
OVCAR-4 ovarian = system: OVCAR-4 ovarian
PC-3 prostate = system: PC-3 prostate
HS 578T breast = system: HS 578T breast
TK-10 renal = system: TK-10 renal
HL-60(TB) leukemia = system: HL-60(TB) leukemia
HOP-62 NSCLC = system: HOP-62 NSCLC
HCT-15 colon = system: HCT-15 colon
UO-31 renal = system: UO-31 renal
MDA-MB-435 = system: MDA-MB-435
CAKI-1 renal = system: CAKI-1 renal
ACHN renal = system: ACHN renal
SK-OV-3 ovarian = system: SK-OV-3 ovarian
MDA-MB-231 breast = system: MDA-MB-231 breast
OVCAR-8 ovarian = system: OVCAR-8 ovarian
NCI-H23 lung = system: NCI-H23 lung
MALME-3M melanoma = system: MALME-3M melanoma
SNB-75 CNS = system: SNB-75 CNS
SK-MEL-28 melanoma = system: SK-MEL-28 melanoma

## NC(N)=NCCC[C@H]1NC(=O)[C@@H](CCC(=O)O)NC(=O)[C@@H](CC(=O)O)NC(=O)[C@@H](CCC(=O)O)NC(=O)[C@H](Cc2c[nH]c3ccccc23)NC1=O (cyclo(W[dE][dD][dE][dR]))
UACC-257 melanoma
  TGI: > 7500 nM
A498 renal
  TGI: > 7500 nM
EKVX NSCLC
  TGI: > 7500 nM
SW-620 colon
  TGI: > 7500 nM
SNB-19 CNS
  TGI: > 7500 nM
M14 melanoma
  TGI: > 7500 nM
SF-268 CNS
  TGI: > 7500 nM
SK-MEL-5 melanoma
  TGI: > 7500 nM
LOX IMVI melanoma
  TGI: > 7500 nM
NCI/ADR-RES ovarian
  TGI: > 7500 nM
HT29 colon
  TGI: > 7500 nM
MOLT-4 leukemia
  TGI: > 7500 nM
RXF 393 renal
  TGI: > 7500 nM
SF-539 CNS
  TGI: > 7500 nM
BT-549 breast
  TGI: > 7500 nM
HCC-2998 colon
  TGI: > 7500 nM
SF-295 CNS
  TGI: > 7500 nM
HOP-92 NSCLC
  TGI: > 7500 nM
HCT-116 colon
  TGI: > 7500 nM
UACC-62 melanoma
  TGI: > 7500 nM
A549 NSCLC
  TGI: > 7500 nM
KM12 colon
  TGI: > 7500 nM
NCI-H522 lung
  TGI: > 7500 nM
NCI-H226 lung
  TGI: > 7500 nM
CCRF-CEM leukemia
  TGI: > 7500 nM
OVCAR-3 ovarian
  TGI: > 7500 nM
COLO 205 colon
  TGI: > 7500 nM
SN12C renal
  TGI: > 7500 nM
RPMI-8226 leukemia
  TGI: > 7500 nM
SR leukemia
  TGI: > 7500 nM
SK-MEL-2 melanoma
  TGI: 507 nM
K-562 leukemia
  TGI: > 7500 nM
NCI-H460 lung
  TGI: > 7500 nM
IGROV1 ovarian
  TGI: > 7500 nM
786-0 renal
  TGI: > 7500 nM
DU-145 prostate
  TGI: > 7500 nM
U251 CNS
  TGI: > 7500 nM
T-47D breast
  TGI: > 7500 nM
MCF7 breast
  TGI: > 7500 nM
OVCAR-5 ovarian
  TGI: > 7500 nM
OVCAR-4 ovarian
  TGI: > 7500 nM
PC-3 prostate
  TGI: > 7500 nM
HS 578T breast
  TGI: > 7500 nM
TK-10 renal
  TGI: > 7500 nM
HL-60(TB) leukemia
  TGI: > 7500 nM
HOP-62 NSCLC
  TGI: > 7500 nM
HCT-15 colon
  TGI: > 7500 nM
UO-31 renal
  TGI: > 7500 nM
MDA-MB-435
  TGI: > 7500 nM
CAKI-1 renal
  TGI: > 7500 nM
ACHN renal
  TGI: > 7500 nM
SK-OV-3 ovarian
  TGI: > 7500 nM
MDA-MB-231 breast
  TGI: > 7500 nM
OVCAR-8 ovarian
  TGI: > 7500 nM
NCI-H23 lung
  TGI: > 7500 nM

## ClCc1ccccc1Cn1cnc2c(Cl)nc(Cl)nc21
MALME-3M melanoma
  GI50: 1220 nM
  TGI: 3590 nM
UACC-257 melanoma
  GI50: 1900 nM
  TGI: 4000 nM
A498 renal
  GI50: 2050 nM
  TGI: 4000 nM
EKVX NSCLC
  GI50: 332 nM
  TGI: 811 nM
SW-620 colon
  GI50: < 39.2 nM
  TGI: 64.7 nM
SNB-19 CNS
  GI50: 1040 nM
  TGI: 2240 nM
M14 melanoma
  GI50: 453 nM
  TGI: 1070 nM
SF-268 CNS
  GI50: 115 nM
  TGI: 556 nM
SK-MEL-5 melanoma
  GI50: 104 nM
  TGI: 501 nM
LOX IMVI melanoma
  GI50: < 39.5 nM
  TGI: 169 nM
NCI/ADR-RES ovarian
  GI50: 552 nM
  TGI: 1330 nM
MOLT-4 leukemia
  GI50: 574 nM
  TGI: 1590 nM
RXF 393 renal
  GI50: 1460 nM
  TGI: 3010 nM
SF-539 CNS
  GI50: 170 nM
  TGI: 467 nM
BT-549 breast
  GI50: 460 nM
  TGI: 1500 nM
SNB-75 CNS
  GI50: 892 nM
  TGI: 2140 nM
HCC-2998 colon
  GI50: 315 nM
  TGI: 1320 nM
SF-295 CNS
  GI50: 1580 nM
  TGI: 3110 nM
HCT-116 colon
  GI50: 60.5 nM
  TGI: 188 nM
UACC-62 melanoma
  GI50: 408 nM
  TGI: 865 nM
A549 NSCLC
  GI50: 2820 nM
  TGI: 8800 nM
KM12 colon
  GI50: 1480 nM
  TGI: 2950 nM
NCI-H522 lung
  GI50: 964 nM
  TGI: 2600 nM
NCI-H226 lung
  GI50: 603 nM
  TGI: 1590 nM
CCRF-CEM leukemia
  GI50: 31.3 nM
  TGI: 93.9 nM
OVCAR-3 ovarian
  GI50: 547 nM
  TGI: 1170 nM
COLO 205 colon
  GI50: 163 nM
  TGI: 362 nM
SN12C renal
  GI50: 362 nM
  TGI: 1020 nM
RPMI-8226 leukemia
  GI50: 139 nM
  TGI: 501 nM
SR leukemia
  GI50: 1770 nM
  TGI: 4930 nM
SK-MEL-2 melanoma
  GI50: 2250 nM
  TGI: 4720 nM
K-562 leukemia
  GI50: 189 nM
  TGI: 1940 nM
NCI-H460 lung
  GI50: 2290 nM
  TGI: 7150 nM
IGROV1 ovarian
  GI50: 996 nM
  TGI: 2530 nM
786-0 renal
  GI50: 167 nM
  TGI: 634 nM
SK-MEL-28 melanoma
  GI50: 942 nM
  TGI: 2480 nM
DU-145 prostate
  GI50: 207 nM
  TGI: 743 nM
U251 CNS
  GI50: 222 nM
  TGI: 602 nM
T-47D breast
  GI50: 1990 nM
  TGI: 5460 nM
MCF7 breast
  GI50: 118 nM
  TGI: > 100000 nM
OVCAR-5 ovarian
  GI50: 471 nM
  TGI: 1210 nM
OVCAR-4 ovarian
  GI50: 1030 nM
  TGI: 2550 nM
PC-3 prostate
  GI50: 425 nM
  TGI: 1610 nM
HS 578T breast
  GI50: 1190 nM
  TGI: 3550 nM
TK-10 renal
  GI50: 1020 nM
  TGI: 2490 nM
HL-60(TB) leukemia
  GI50: 181 nM
  TGI: 1350 nM
HOP-62 NSCLC
  GI50: 1380 nM
  TGI: 2780 nM
HCT-15 colon
  TGI: 139 nM
UO-31 renal
  GI50: 379 nM
  TGI: 1440 nM
MDA-MB-435
  GI50: 1640 nM
  TGI: 3270 nM
CAKI-1 renal
  GI50: 728 nM
  TGI: 1590 nM
ACHN renal
  GI50: 78.5 nM
  TGI: 316 nM
SK-OV-3 ovarian
  GI50: 1950 nM
  TGI: 3700 nM
MDA-MB-231 breast
  TGI: 295 nM
OVCAR-8 ovarian
  GI50: 1440 nM
  TGI: 2980 nM
NCI-H23 lung
  GI50: 485 nM
  TGI: 1020 nM
